Reference: patent publication US8192962B2, “Processes for detecting toxic substances” (Daikin Industries, Ltd., priority 2001, dated 2012)

Test system: Genes belonging to other category
Assay: DNA chip mRNA expression in yeast, genes belonging to other category (Table 9)
Assay type: cell-based, Saccharomyces cerevisiae S288C
Method: Yeast (Saccharomyces cerevisiae S288C (α SUC2mal mel gap2 CUP1)) were incubated at 25° C. on YPD medium (yeast extract 1%, polypepton 2%, glucose 2%). One of toxic chemical substances was added to the cells at logarithmic growth phase, and the cells were further incubated for two hours. Cells were cultured without any chemical substance in the same condition, and were used as control. Concentrations of the chemical substances were defined to inhibit the growth of the yeast but not lead to death.
After completion of the incubation, the culture was centrifuged to collect the cells. To the cells, sodium acetate buffer (50 mM sodium acetate, 10 mM EDTA, 1% SDS) was added, and the mixture was shaken at 65° C. for five minutes, followed by returning to room temperature, and obtaining the supernatant, of which the procedures were repeated two times. To the supernatant, ½ amount of a solution of phenol/chloroform was added, and the mixture was centrifuged to give a supernatant, which was added with an equal amount of chloroform, and the mixture was centrifuged to give a supernatant. To the supernatant, an equal amount of isopropanol containing 0.3 M sodium acetate was added, and the mixture was allowed to stand at room temperature for 30 minutes, after which the mixture was centrifuged to give a sediment of the whole RNAs. Seventy % ethanol was added to the sediment, and the mixture was again centrifuged to give a sediment, which was then dried and dissolved in water. mRNA was isolated from the whole RNAs as followings. In view of the fact that a poly A chain is attached to the 3′ terminus of mRNA, a polynucleotide having a poly T structure which was immobilized on the surface of latex beads was used to trap the mRNA, and then the mRNA was washed and eluted with spine column (Oligotex-dT30<Super>mRNA Purification Kit, Takara). Reverse transcription of the mRNA was conducted with a reverse transcriptase (Super Script II Reverse Transcriptase; catalogue No. 18064-014, GibcoBRL) using fluorescence-labeled nucleotides to give cDNAs that were introduced with Cy3-dUTP or Cy5-dUTP during the reverse transcription.
The labeled cDNAs were dissolved in TE buffer (10mM Tris-HCl/1 mM EDTA, pH8.0), and the solution was dropped on the DNA chip containing the whole genes of yeast (DNA Chip Research Inc. Japan) so that the cDNAs were hybridized on the DNA chip at 65° C. for over 12 hours. The fluoresces intensity of the DNA chip was read with a scanner, and the ratio relative to the fluorescence intensity resulting from the absence of chemical substance was estimated as the following, which is shown in Tables 1 to 9: […]

In the case of Na2As [(1)], the “The level of expressed mRNA in the presence of chemical substance/The level of expressed mRNA in the absence of chemical substance” value (yeast gene YAR010C) is reported as 0.8, the “The level of expressed mRNA in the presence of chemical substance/The level of expressed mRNA in the absence of chemical substance” value (yeast gene YBL005W-A) is reported as 1.0 and the “The level of expressed mRNA in the presence of chemical substance/The level of expressed mRNA in the absence of chemical substance” value (yeast gene YBL041W) is reported as 1.2. For the same substance, the “The level of expressed mRNA in the presence of chemical substance/The level of expressed mRNA in the absence of chemical substance” value (yeast gene YBL043W) was 1.2, the “The level of expressed mRNA in the presence of chemical substance/The level of expressed mRNA in the absence of chemical substance” value (yeast gene YBL078C) was 2.3 and the “The level of expressed mRNA in the presence of chemical substance/The level of expressed mRNA in the absence of chemical substance” value (yeast gene YBR214W) was 0.9. The “The level of expressed mRNA in the presence of chemical substance/The level of expressed mRNA in the absence of chemical substance” value (yeast gene YCL020W) was 1.1, the “The level of expressed mRNA in the presence of chemical substance/The level of expressed mRNA in the absence of chemical substance” value (yeast gene YCL027W) was 0.7 and the “The level of expressed mRNA in the presence of chemical substance/The level of expressed mRNA in the absence of chemical substance” value (yeast gene YCR004C) was 1.7. For the same substance, the “The level of expressed mRNA in the presence of chemical substance/The level of expressed mRNA in the absence of chemical substance” value (yeast gene YCR071C) was 1.1, the “The level of expressed mRNA in the presence of chemical substance/The level of expressed mRNA in the absence of chemical substance” value (yeast gene YCR088W) was 0.9 and the “The level of expressed mRNA in the presence of chemical substance/The level of expressed mRNA in the absence of chemical substance” value (yeast gene YDL008W) was 1.1. For the same substance, the “The level of expressed mRNA in the presence of chemical substance/The level of expressed mRNA in the absence of chemical substance” value (yeast gene YDL238C) was 0.7, the “The level of expressed mRNA in the presence of chemical substance/The level of expressed mRNA in the absence of chemical substance” value (yeast gene YDR055W) was 1.7 and the “The level of expressed mRNA in the presence of chemical substance/The level of expressed mRNA in the absence of chemical substance” value (yeast gene YDR084C) was 0.9. The “The level of expressed mRNA in the presence of chemical substance/The level of expressed mRNA in the absence of chemical substance” value (yeast gene YDR085C) was 1.9, the “The level of expressed mRNA in the presence of chemical substance/The level of expressed mRNA in the absence of chemical substance” value (yeast gene YDR104C) was 0.8 and the “The level of expressed mRNA in the presence of chemical substance/The level of expressed mRNA in the absence of chemical substance” value (yeast gene YDR115W) was 1.3. For the same substance, the “The level of expressed mRNA in the presence of chemical substance/The level of expressed mRNA in the absence of chemical substance” value (yeast gene YDR259C) was 1.4, the “The level of expressed mRNA in the presence of chemical substance/The level of expressed mRNA in the absence of chemical substance” value (yeast gene YDR315C) was 1.0 and the “The level of expressed mRNA in the presence of chemical substance/The level of expressed mRNA in the absence of chemical substance” value (yeast gene YDR358W) was 0.7. The “The level of expressed mRNA in the presence of chemical substance/The level of expressed mRNA in the absence of chemical substance” value (yeast gene YDR388W) was 0.7, the “The level of expressed mRNA in the presence of chemical substance/The level of expressed mRNA in the absence of chemical substance” value (yeast gene YDR432W) was 0.5 and the “The level of expressed mRNA in the presence of chemical substance/The level of expressed mRNA in the absence of chemical substance” value (yeast gene YDR481C) was 0.7. The “The level of expressed mRNA in the presence of chemical substance/The level of expressed mRNA in the absence of chemical substance” value (yeast gene YDR510W) was 1.0, the “The level of expressed mRNA in the presence of chemical substance/The level of expressed mRNA in the absence of chemical substance” value (yeast gene YEL042W) was 0.6 and the “The level of expressed mRNA in the presence of chemical substance/The level of expressed mRNA in the absence of chemical substance” value (yeast gene YEL066W) was 2.0. For the same substance, the “The level of expressed mRNA in the presence of chemical substance/The level of expressed mRNA in the absence of chemical substance” value (yeast gene YER039C) was 1.0, the “The level of expressed mRNA in the presence of chemical substance/The level of expressed mRNA in the absence of chemical substance” value (yeast gene YER107C) was 0.9 and the “The level of expressed mRNA in the presence of chemical substance/The level of expressed mRNA in the absence of chemical substance” value (yeast gene YER130C) was 0.9. For the same substance, the “The level of expressed mRNA in the presence of chemical substance/The level of expressed mRNA in the absence of chemical substance” value (yeast gene YFL022C) was 0.8, the “The level of expressed mRNA in the presence of chemical substance/The level of expressed mRNA in the absence of chemical substance” value (yeast gene YFL028C) was 1.2 and the “The level of expressed mRNA in the presence of chemical substance/The level of expressed mRNA in the absence of chemical substance” value (yeast gene YFL043C) was 1.0. The “The level of expressed mRNA in the presence of chemical substance/The level of expressed mRNA in the absence of chemical substance” value (yeast gene YGL158W) was 1.1, the “The level of expressed mRNA in the presence of chemical substance/The level of expressed mRNA in the absence of chemical substance” value (yeast gene YGL229C) was 0.6 and the “The level of expressed mRNA in the presence of chemical substance/The level of expressed mRNA in the absence of chemical substance” value (yeast gene YGR136W) was 0.9. The “The level of expressed mRNA in the presence of chemical substance/The level of expressed mRNA in the absence of chemical substance” value (yeast gene YGR189C) was 1.1, the “The level of expressed mRNA in the presence of chemical substance/The level of expressed mRNA in the absence of chemical substance” value (yeast gene YGR213C) was 5.4 and the “The level of expressed mRNA in the presence of chemical substance/The level of expressed mRNA in the absence of chemical substance” value (yeast gene YGR257C) was 0.7. The “The level of expressed mRNA in the presence of chemical substance/The level of expressed mRNA in the absence of chemical substance” value (yeast gene YHR004C) was 0.9, the “The level of expressed mRNA in the presence of chemical substance/The level of expressed mRNA in the absence of chemical substance” value (yeast gene YHR071W) was 1.5 and the “The level of expressed mRNA in the presence of chemical substance/The level of expressed mRNA in the absence of chemical substance” value (yeast gene YHR139C) was 3.0. For the same substance, the “The level of expressed mRNA in the presence of chemical substance/The level of expressed mRNA in the absence of chemical substance” value (yeast gene YHR142W) was 1.5, the “The level of expressed mRNA in the presence of chemical substance/The level of expressed mRNA in the absence of chemical substance” value (yeast gene YIL123W) was 1.0 and the “The level of expressed mRNA in the presence of chemical substance/The level of expressed mRNA in the absence of chemical substance” value (yeast gene YIL140W) was 0.7. The “The level of expressed mRNA in the presence of chemical substance/The level of expressed mRNA in the absence of chemical substance” value (yeast gene YJL073W) was 0.8, the “The level of expressed mRNA in the presence of chemical substance/The level of expressed mRNA in the absence of chemical substance” value (yeast gene YJL089W) was 1.1 and the “The level of expressed mRNA in the presence of chemical substance/The level of expressed mRNA in the absence of chemical substance” value (yeast gene YJL116C) was 0.9. The “The level of expressed mRNA in the presence of chemical substance/The level of expressed mRNA in the absence of chemical substance” value (yeast gene YJR004C) was 0.2 and the “The level of expressed mRNA in the presence of chemical substance/The level of expressed mRNA in the absence of chemical substance” value (yeast gene YJR086W) was 1.2.
